Reference: US20240158495A1, “Antibody Agents Directed Against Lymphocyte Activation Gene-3 (LAG-3) and Uses Thereof” (Tesaro, Inc., priority 2017, published 2024)

What was measured:
PARP activity = conditions: various cell lines, hydrogen peroxide, cited from earlier work
LAG-3/MHC-II binding = target: T1, LAG-3/MHC-II binding (Homo sapiens, UniProt P18627); experiment: LAG-3 reporter gene assay (LAG-3 Jurkat cells / MHC class II Raji cells, NFAT readout); assay type: cell-based; conditions: FIG. 3C
T1 construct: expressed in transfected cells; host or cells: Jurkat cells (NFAT reporter)
T1 sequence (P18627 23-525): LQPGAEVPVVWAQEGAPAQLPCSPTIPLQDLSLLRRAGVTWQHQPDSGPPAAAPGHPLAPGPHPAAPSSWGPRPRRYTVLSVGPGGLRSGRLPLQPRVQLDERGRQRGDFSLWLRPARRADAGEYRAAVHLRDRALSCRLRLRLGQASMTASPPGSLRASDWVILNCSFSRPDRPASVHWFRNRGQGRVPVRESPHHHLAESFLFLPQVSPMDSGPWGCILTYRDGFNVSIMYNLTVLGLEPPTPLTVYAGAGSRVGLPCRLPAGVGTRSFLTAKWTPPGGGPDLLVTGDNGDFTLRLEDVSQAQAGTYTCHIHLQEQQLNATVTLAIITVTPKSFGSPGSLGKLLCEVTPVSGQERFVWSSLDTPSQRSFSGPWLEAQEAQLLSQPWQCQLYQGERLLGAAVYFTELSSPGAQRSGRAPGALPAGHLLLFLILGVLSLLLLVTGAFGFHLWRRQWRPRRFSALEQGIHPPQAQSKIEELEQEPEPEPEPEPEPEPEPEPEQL
Description: Specifically, this example uses Raji cells, which express high levels of endogenous MHC class II.

Human LAG-3 = target: T2, Human LAG-3 (Homo sapiens, UniProt P18627); experiment: SPR binding to recombinant soluble human LAG-3
T2 construct: either recombinant soluble or cell-surface-expressed human and cynomolgus monkey (cyno) LAG-3
T2 sequence (P18627 23-450 limits assumed): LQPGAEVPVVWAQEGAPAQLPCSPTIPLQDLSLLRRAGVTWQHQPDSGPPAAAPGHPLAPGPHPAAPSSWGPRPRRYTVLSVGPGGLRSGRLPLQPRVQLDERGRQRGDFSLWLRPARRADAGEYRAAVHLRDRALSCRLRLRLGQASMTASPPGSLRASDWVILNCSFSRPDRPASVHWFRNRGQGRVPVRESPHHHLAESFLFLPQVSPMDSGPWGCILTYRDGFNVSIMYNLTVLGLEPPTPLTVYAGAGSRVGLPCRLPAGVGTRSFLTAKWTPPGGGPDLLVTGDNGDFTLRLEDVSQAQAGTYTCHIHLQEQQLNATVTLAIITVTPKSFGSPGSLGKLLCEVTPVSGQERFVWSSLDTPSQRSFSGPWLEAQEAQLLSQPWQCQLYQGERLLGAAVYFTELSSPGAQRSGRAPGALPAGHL

LAG-3 = target: T3, LAG-3 (Homo sapiens, UniProt P18627); experiment: Receptor occupancy on patient T cells (direct binding assay, flow cytometry); assay type: in vivo; conditions: patients, early time points, FIG. 10C
T3 construct: PBMCs were isolated from fresh whole blood samples from patients; endogenous in cells; host or cells: T cells in PBMCs from patient whole blood
T3 sequence (P18627 23-525): T1 sequence (P18627 23-525)
Description: The saturation binding aliquot was run in parallel as a control to assess the range of the assay.

[1] = tested on: primary human CD4+ T cells; experiment: Mixed lymphocyte reaction (MLR) assay, IL-2 secretion; assay type: cell-based; conditions: 48 hours, antibody alone, FIG. 4
Description: This example describes the ability of an exemplary anti-LAG-3 antibody agent to activate primary human T cells in vitro. […] In this MLR assay, primary human CD4+ T cells were mixed with monocyte-derived dendritic cells from a different donor. In these studies, dendritic cells and allogeneic CD4+ T cells were incubated in the presence of an exemplary anti-LAG-3 antibody agent or isotype control for 48 hours, and activation of T cells was determined by measuring the level of interleukin-2 (IL-2) secretion.

human PBMCs = experiment: IL-2 release from SEB-stimulated human PBMCs; assay type: cell-based; conditions: 100 ng/mL SEB for 3 days, 5 donors, FIG. 5
Description: Specifically human PBMCs (from 5 donors) were stimulated with 100 ng/mL SEB for 3 days and then IL-2 induction was assessed.

Cyno LAG-3 = experiment: SPR binding to recombinant soluble cyno LAG-3; design: species or system cynomolgus monkey

| Molecule | IC90 (PARP activity; read-out: inhibitory concentration at 90% of control (IC90)) | IC50 (PARP activity) | disruption of binding of LAG-3 on Jurkat cells to MHC Class II expressing Raji cells (LAG-3/MHC-II binding) | Kassoc (Human LAG-3) | Kdissoc (Human LAG-3) | receptor occupancy (RO) (LAG-3; 80 mg dose) | receptor occupancy (RO) (LAG-3; 240 mg dose) | IL-2 production [1] | IL-2 production (human PBMCs) | Kassoc (Cyno LAG-3) | Kdissoc (Cyno LAG-3) |
| --- | --- | --- | --- | --- | --- | --- | --- | --- | --- | --- | --- |
| NC(=O)c1cccc2cn(-c3ccc([C@@H]4CCCNC4)cc3)nc12 [Niraparib, (3S)-3-[4-{7-(aminocarbonyl)-2H-indazol-2-yl}phenyl]piperidine] | ~50 nM | ~4 nM |  |  |  |  |  |  |  |  |  |
| TSR-033: anti-LAG-3 antibody agent comprising a heavy chain of SEQ ID NO: 21 and a light chain of SEQ ID NO: 22 |  |  | potent antagonist | 1.3 × 10^5 (ms)^−1 | 0.00013 s⁻¹ | approximately 50% | approaches saturation | dose-dependently increased IL-2 production | dose-dependently increased IL-2 production | 1.1 × 10^5 (ms)^−1 | 0.00026 s⁻¹ |
